The source of these data is patent US20090105124A1, “HETEROCYCLIC MODULATORS OF TGR5” (Kalypsys, Inc., priority 2007, published 2009).

Bounds are passed on as bounds.

This assay has as its target T1, human TGR5 (Homo sapiens, UniProt Q8TDU6).
T1 construct: expressed in transfected cells
T1 sequence (Q8TDU6 1-330): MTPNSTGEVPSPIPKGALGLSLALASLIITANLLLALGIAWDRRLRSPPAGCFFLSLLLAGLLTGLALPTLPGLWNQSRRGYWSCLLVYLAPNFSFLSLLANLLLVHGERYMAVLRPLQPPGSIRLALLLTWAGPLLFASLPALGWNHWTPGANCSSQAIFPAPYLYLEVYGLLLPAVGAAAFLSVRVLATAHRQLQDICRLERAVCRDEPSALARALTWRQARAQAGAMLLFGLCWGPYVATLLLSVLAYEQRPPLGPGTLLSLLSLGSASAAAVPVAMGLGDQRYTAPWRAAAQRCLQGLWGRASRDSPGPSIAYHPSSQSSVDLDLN
Briefly: cAMP production assay in HEK293 cells stably expressing TGR5 (LANCE cAMP, TR-FRET). The assay is classed as cell-based. The note with it: stimulated with test compounds for 30 minutes, 1 mM IBMX, read-out: cAMP Production in 293-TGR5 Cells. The method, then: HEK293 cells stably expressing TGR5 (HEK293-TGR5) were established by stably transfecting HEK-293 cells with an expression vector (pcDNA 3.1, Invetrogen) inserted with human TGR5 cDNA using Fugene6 (Roche, Indianapolis, Ind.) according to conventional methods. Cells were grown in DMEM (invitrogen, Carlsbad, Calif.) supplemented with 10% FBS, 1% penicillin/streptomycin under geneticin selection. The presence of TGR5 transcripts in these cells was confirmed using branched DNA (bDNA, Genospectra, Inc., Fremont Calif.) following the manufacturer's protocol and using specific probes for human TGR5. cAMP production assay was performed in high throughput 1536 well format using LANCE cAMP detection kit (Perkin Elmer Inc., Boston, Mass.) according to the manufacturer's protocol. Briefly, HEK293-TGR5 cells were harvested using non-enzymatic cell dissociation buffer (Invitrogen, Carlsbad, Calif.) and suspended in DMEM supplemented with 0.1% FBS at a density of 800,000 cells/ml. Alexa antibody was added to the cell suspension, and 4 ul of the mixture was dispensed in white opaque tissue culture treated Greiner 1536 well plates (USA Scientific, Inc., Ocala, Fla.). After an overnight incubation at 37 C in an atmosphere of 10% CO2 and 95% humidity, 1 ul of 5 mM IBMX (Sigma, St. Louis, Mo.) solution in DMEM was dispensed for a final concentration of 1 mM. Cells were then stimulated with test compounds for 30 minutes, after which time 5 ul of detection reagent was added and incubated for 1-7 hrs at room temperature. TR-FRET signal was detected using the Viewlux (Perkin Elmer Inc., Boston Mass.). EC50 values were determined using Graph Pad Prizm analysis (GraphPad Software, Inc). The EC50 values for a wide range of bile acids generated from this assay were in agreement with the values published in the scientific literature. […] The symbol (+) denotes an EC50 value of ≦10 μM while the symbol (−) denotes an EC50 value of >10 μM (see Table 1).
In general terms: Cyclic AMP is a second messenger, typically raised through Gs and lowered through Gi signalling.
For the molecule `O=c1c2cccnc2nc(-c2cncc(Cl)c2)n1NCc1ccc(Cl)cc1F` [Example 1, 3-{[(4-Chloro-2-fluorophenyl)methyl]amino}-2-(5-chloropyridin-3-yl)-3H,4H-pyrido[2,3-d]pyrimidin-4-one], the EC50 is at most 10 µM.
For the molecule `O=c1c2cccnc2nc(-c2ccccc2F)n1NCc1ccc(Cl)cc1` [Example 2, 3-{[(4-Chlorophenyl)methyl]amino}-2-(2-fluorophenyl)-3H,4H-pyrido[2,3-d]pyrimidin-4-one], the EC50 is at most 10 µM.
Under `COc1cccc(-c2nc3ncccc3c(=O)n2NCc2ccc(Cl)cc2)c1` [Example 3, 3-{[(4-Chlorophenyl)methyl]amino}-2-(3-methoxyphenyl)-3H,4H-pyrido[2,3-d]pyrimidin-4-one] stands at most 10 µM.
Turning to `O=c1c2cccnc2nc(-c2ccc(F)cc2)n1NCc1ccc(Br)cc1` [Example 4, 3-{[(4-Bromophenyl)methyl]amino}-2-(4-fluorophenyl)-3H,4H-pyrido[2,3-d]pyrimidin-4-one], the EC50 is at most 10 µM.
For the molecule `COc1ccc(-c2nc3ncccc3c(=O)n2NCc2ccc(Br)cc2)cc1` [Example 5, 3-{[(4-Bromophenyl)methyl]amino}-2-(4-methoxyphenyl)-3H,4H-pyrido[2,3-d]pyrimidin-4-one], the EC50 is at most 10 µM.
With `O=c1c2cccnc2nc(-c2ccc(O)cc2)n1NCc1ccc(Br)cc1` [Example 6, 3-{[(4-Bromophenyl)methyl]amino}-2-(4-hydroxyphenyl)-3H,4H-pyrido[2,3-d]pyrimidin-4-one], the EC50 is at most 10 µM.
As for `O=c1c2cccnc2nc(-c2cccnc2)n1NCc1ccc(Cl)cc1` [Example 7, 3-{[(4-Chlorophenyl)methyl]amino}-2-(pyridin-3-yl)-3H,4H-pyrido[2,3-d]pyrimidin-4-one], the EC50 is at most 10 µM.
In the case of `O=c1c2cccnc2nc(-c2cncc(Cl)c2)n1NCc1ccc(Cl)cc1` [Example 8, 3-{[(4-Chlorophenyl)methyl]amino}-2-(5-chloropyridin-3-yl)-3H,4H-pyrido[2,3-d]pyrimidin-4-one], the EC50 was at most 10 µM.
For the molecule `COc1cncc(-c2nc3ncccc3c(=O)n2NCc2ccc(Cl)cc2)c1` [Example 9, 3-{[(4-Chlorophenyl)methyl]amino}-2-(5-methoxypyridin-3-yl)-3H,4H-pyrido[2,3-d]pyrimidin-4-one], the EC50 is at most 10 µM.
Under `O=c1c2cccnc2nc(-c2ccc(F)cc2)n1NCc1ccc(Cl)cc1` [Example 10, 3-{[(4-Chlorophenyl)methyl]amino}-2-(4-fluorophenyl)-3H,4H-pyrido[2,3-d]pyrimidin-4-one] stands at most 10 µM; under `O=c1c2cccnc2nc(-c2ccc(F)cc2)n1NCc1ccc(C(F)(F)F)cc1` [Example 11, 2-(4-Fluorophenyl)-3-({[4-(trifluoromethyl)phenyl]methyl}amino)-3H,4H-pyrido[2,3-d]pyrimidin-4-one], at most 10 µM.
Under `O=c1c2cccnc2nc(-c2ccc(F)cc2)n1NCc1ccc(F)c(F)c1` [Example 12, 3-{[(3,4-Difluorophenyl)methyl]amino}-2-(4-fluorophenyl)-3H,4H-pyrido[2,3-d]pyrimidin-4-one] stands at most 10 µM; under `COc1cc(-c2nc3ncccc3c(=O)n2NCc2ccc(Br)cc2)ccc1C` [Example 13, 3-{[(4-Bromophenyl)methyl]amino}-2-(3-methoxy-4-methylphenyl)-3H,4H-pyrido[2,3-d]pyrimidin-4-one], at most 10 µM.
As for `COc1cc(-c2nc3ncccc3c(=O)n2NCc2ccc(Cl)cc2)ccc1C` [Example 14, 3-{[(4-Chlorophenyl)methyl]amino}-2-(3-methoxy-4-methylphenyl)-3H,4H-pyrido[2,3-d]pyrimidin-4-one], the EC50 was at most 10 µM.
`COc1cc(-c2nc3ncccc3c(=O)n2NCc2ccc(Cl)cc2)ccc1O` [Example 15, 3-{[(4-Chlorophenyl)methyl]amino}-2-(4-hydroxy-3-methoxyphenyl)-3H,4H-pyrido[2,3-d]pyrimidin-4-one]: the EC50 is at most 10 µM.
As to `COc1cncc(-c2nc3cnccc3c(=O)n2NCc2ccc(Cl)cc2)c1` [Example 16, 3-{[(4-Chlorophenyl)methyl]amino}-2-(5-methoxypyridin-3-yl)-3H,4H-pyrido[3,4-d]pyrimidin-4-one], the EC50 was at most 10 µM.
Under `O=c1c2ccncc2nc(-c2ccc(F)cc2)n1NCc1ccc(Br)cc1` [Example 17, 3-{[(4-Bromophenyl)methyl]amino}-2-(4-fluorophenyl)-3H,4H-pyrido[3,4-d]pyrimidin-4-one] stands at most 10 µM; under `O=c1c2ccncc2nc(-c2cncc(Cl)c2)n1NCc1ccc(Cl)cc1` [Example 18, 3-{[(4-Chlorophenyl)methyl]amino}-2-(5-chloropyridin-3-yl)-3H,4H-pyrido[3,4-d]pyrimidin-4-one], at most 10 µM.
The same measure for `Cc1cc(-c2nc3cnccc3c(=O)n2NCc2ccc(Cl)cc2)ccc1[N+](=O)[O-]` [Example 19, 3-{[(4-Chlorophenyl)methyl]amino}-2-(3-methyl-4-nitrophenyl)-3H,4H-pyrido[3,4-d]pyrimidin-4-one]: at most 10 µM.
Under `Cc1cc(-c2nc3cnccc3c(=O)n2NCc2ccc(Cl)cc2)ccc1N` [Example 20, 2-(4-Amino-3-methylphenyl)-3-{[(4-chlorophenyl)methyl]amino}-3H,4H-pyrido[3,4-d]pyrimidin-4-one] stands at most 10 µM.
As for `Cc1cc(-c2nc3cnccc3c(=O)n2NCc2ccc(Cl)cc2)ccc1O` [Example 21, 3-{[(4-Chlorophenyl)methyl]amino}-2-(4-hydroxy-3-methylphenyl)-3H,4H-pyrido[3,4-d]pyrimidin-4-one], the EC50 is at most 10 µM.
The same measure for `COc1cc(-c2nc3cnccc3c(=O)n2NCc2ccc(Cl)cc2)ccc1O` [Example 22, 3-{[(4-Chlorophenyl)methyl]amino}-2-(4-hydroxy-3-methoxyphenyl)-3H,4H-pyrido[3,4-d]pyrimidin-4-one]: at most 10 µM; for `O=c1c2cnccc2nc(-c2ccc(F)cc2)n1NCc1ccc(Cl)cc1` [Example 23, 3-{[(4-Chlorophenyl)methyl]amino}-2-(4-fluorophenyl)-3H,4H-pyrido[4,3-d]pyrimidin-4-one]: at most 10 µM.
Under `O=c1c2ncccc2nc(-c2ccc(F)cc2)n1NCc1ccc(Br)cc1` [Example 25, 3-{[(4-Bromophenyl)methyl]amino}-2-(4-fluorophenyl)-3H,4H-pyrido[3,2-d]pyrimidin-4-one] stands at most 10 µM; under `O=c1c2ccsc2nc(-c2ccc(O)cc2)n1NCc1ccc(Br)cc1` [Example 26, 3-{[(4-Bromophenyl)methyl]amino}-2-(4-hydroxyphenyl)-3H,4H-thieno[2,3-d]pyrimidin-4-one], at most 10 µM; under `COc1cncc(-c2nc3ccsc3c(=O)n2NCc2ccc(Cl)cc2)c1` [Example 27, 3-{[(4-Chlorophenyl)methyl]amino}-2-(5-methoxypyridin-3-yl)-3H,4H-thieno[3,2-d]pyrimidin-4-one], at most 10 µM.
The same measure for `COc1cncc(-c2nc3ccsc3c(=O)n2NCC2CCC2)c1` [Example 28, 3-[(Cyclobutylmethyl)amino]-2-(5-methoxypyridin-3-yl)-3H,4H-thieno[3,2-d]pyrimidin-4-one]: at most 10 µM; for `COc1cncc(-c2nc3nccnc3c(=O)n2NCc2ccc(Cl)cc2)c1` [Example 29, 3-{[(4-Chlorophenyl)methyl]amino}-2-(5-methoxypyridin-3-yl)-3,4-dihydropteridin-4-one]: at most 10 µM; for `O=c1c2cncnc2nc(-c2ccc(F)cc2)n1NCc1ccc(Cl)cc1` [Example 30, 3-{[(4-Chlorophenyl)methyl]amino}-2-(4-fluorophenyl)-3H,4H-pyrimido[4,5-d][1,3]diazin-4-one]: at most 10 µM.
For the molecule `O=c1c2ccsc2nc(-c2ccc(F)cc2)n1NCc1ccc(Br)cc1` [Example 31, 3-{[(4-Bromophenyl)methyl]amino}-2-(4-fluorophenyl)-3H,4H-thieno[2,3-d]pyrimidin-4-one], the EC50 is at most 10 µM.
Under `O=c1c2ccsc2nc(-c2ccc(F)cc2)n1NCc1ccc(Cl)cc1` [Example 32, 3-{[(4-Chlorophenyl)methyl]amino}-2-(4-fluorophenyl)-3H,4H-thieno[2,3-d]pyrimidin-4-one] stands at most 10 µM.
